# Tests used:
# Assay type in all cases: cell-based
# MYC and C1GALT1 = test: Immunoblots of MYC and C1GALT1 levels under inhibitor treatment; conditions: 22Rv1-M4 and galectin-4-expressing 22Rv1 and LNCaP cells; 24 h
# Description: Data are expressed as mean±SEM. *P<0.05, **P<0.01, ***P<0.001 (unpaired t-test, two-tail).
# [1] = tested on: LNCaP-tetO-Gal4 and 22Rv1-tetO-Gal4 cells; test: Lectin binding assay (flow cytometry) of cell surface glycans after glycosylation inhibitor treatment
# Protocol: FIG. 8A to FIG. 8C show the characterization of glycophenotype in prostate cancer cells. FIG. 8A and FIG. 8B show lectin binding assay of LNCaP-tetO-Gal4 (A) and 22Rv1-tetO-Gal4 (B) cells treated with 3 μM Swainsonine or 4 mM Benzyl-α-GalNAc for 2 day following galectin-4 induction by doxycycline. […] Below, the mean fluorescence intensity (MFI) values from triplicates. Data are expressed as mean±SEM. *P<0.05, **P<0.01, ***P<0.001 (unpaired t-test, two-tail).
# To profile cell surface glycans, cells were detached by Accutase (Innovative Cell Technologies, San Diego, CA) treatment, washed with PBS for three times, and suspended in Carbo-Free Blocking Solution (VECTOR, Burlingame, CA). Cells were incubated with biotin-conjugated lectins, PHA-L (2 μg/mL), PNA (10 μg/mL), MALII (5 μg/mL), Jacalin (5 μg/mL, VECTOR), and galectin-4 (5 μg/mL), or BSA as a control followed by APC-labeled streptavidin. After incubation for 30 min on ice, cells were analyzed on an Accuri C6 flow cytometer (BD Biosciences, Taiwan). Galectin-4 (R&D Systems, Minneapolis, MN) and BSA were biotinylated using Lightning-Link Rapid Conjugation System (Innova Biosciences, Cambridge, UK) following the manufacturer's instructions.
# [2] = tested on: HER2/3 phosphorylation, AR, and PSA expression; test: Immunoblots of HER2/3 phosphorylation, AR and PSA expression after galectin-4 induction
# SOX9 expression = test: Immunoblots of SOX9 expression in 22Rv1-M4 cells; conditions: 3 μM Swainsonine or 4 mM Benzyl-α-GalNAc for 2 days
# LNCaP-CR4 cells = test: Colony-formation assay under enzalutamide treatment; conditions: LNCaP-CR4 vs LNCaP; 10 days
# [3] = 4 mM Benzyl-α-GalNAc for 2 day, PCa cells
compound,measurement,setting,value
N#CC(=C(N)Sc1ccc(N)cc1)c1ccccc1C(F)(F)F [MEK1/2 inhibitor],induction of MYC and C1GALT1 compared to vehicle treatment,MYC and C1GALT1,blocked
CC(=O)N[C@H]1[C@@H](OCc2ccccc2)O[C@H](CO)[C@H](O)[C@@H]1O [benzyl-α-GalNAc],binding of treated cells to MALII,[1]; [3],reduced
same,binding of treated cells to PNA,[1]; [3],increased
same,"biosynthesis of α2,3-sialyl-T antigen",[1]; PCa cells,significantly impaired
same,galectin-4-mediated activation of HER2/3 and AR signaling,"[2]; 4 mM Benzyl-α-GalNAc for 2 day, galectin-4 expressing LNCaP and 22Rv1 cells",blocked
same,galectin-4 activity,[2]; PCa cells,suppressed
same,SOX9 expression,SOX9 expression,significantly inhibited
CNC(=O)c1ccc(N2C(=S)N(c3ccc(C#N)c(C(F)(F)F)c3)C(=O)C2(C)C)cc1F [enzalutamide],clonogenic growth of LNCaP-CR4 cells under enzalutamide,LNCaP-CR4 cells,resistance
O[C@H]1[C@H]2[C@H](O)CCCN2C[C@H]1O [swainsonine],PHA-L staining for N-glycans,"[1]; 3 μM Swainsonine for 2 day following doxycycline-mediated galectin-4 induction, LNCaP and 22Rv1 cells",decreased
same,HER2/3 phosphorylation and induction of AR and PSA protein expression,"[2]; 3 μM Swainsonine for 2 day, galectin-4 expressing LNCaP and 22Rv1 cells",did not affect
same,SOX9 expression,SOX9 expression,did not affect

# From US12359259B2, “Biomarkers for predicting prostate cancer progression” (ACADEMIA SINICA, priority 2018, dated 2025)
